Among the data in US9481654B2, “Compositions and methods for inhibition of the JAK pathway” (Rigel Pharmaceuticals, Inc., priority 2006, dated 2016) are IC50 values, retold here.

For test [1], the system named is IFNγ induced ICAM-1 (CD54) up-regulation in U937 human monocytic cells (JAK/Stat pathway). Briefly: U937 IFNγ ICAM1 FACS Assay. Format: cell-based. The note with it: Table III Example 6; 10 ng/mL IFNγ, 18-24 hours. In a few lines: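 Flow cytometry gave ICAM-1 (CD54) up-regulation as ICAM-APC geometric mean within the live-cell gate, alongside % viable cells. Human monocytic U937 cells received 3-fold serial compound dilutions for 30 min at 37 °C, followed by IFNγ stimulation lasting 18–24 h. Dose curves yielded EC50s.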

Test [2] relates to primary human T-cells (IL-2 induced proliferation, JAK-1/JAK-3, Stat-5). Briefly: Primary Human T-Cell Proliferation Assay Stimulated with IL-2 (CellTiter-Glo). It is filed as cell-based. The note with it: Table III Example 4. The essentials: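 Read-out is intracellular ATP luminescence (CellTiter-Glo) after 72 h at 37 °C of IL-2-driven growth. Cells, pre-stimulated via TCR and CD28 then washed free of IL-2, were resuspended in Yssel's medium, given 80 U/mL IL-2 in the cell suspension plus duplicate compound; unstimulated wells lacked IL-2.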

One may read the IC50 as the midpoint of a concentration-inhibition curve. As to `Cc1ccc(Nc2ncc(C)c(Nc3ccc(CNS(=O)(=O)C4CC4)cc3)n2)cc1S(=O)(=O)NCc1ccccc1` [Compound I-195, N2-(3-benzylaminosulfonyl-4-methyl)phenyl-N4-(4-cyclopropylsulfonylaminomethyl)phenyl-5-methyl-2,4-pyrimidinediamine], the figures for the IC50 in test [1] and in test [2] were 230 nM and 104 nM, respectively.

Regarding `Cc1ccc(Nc2ncc(F)c(Nc3ccc(CNS(=O)(=O)CC(F)(F)F)cc3)n2)cc1S(N)(=O)=O` [Compound I-50, N2-(3-aminosulfonyl-4-methyl)phenyl-5-fluoro-N4-(4-trifluoroethylsulfonylaminomethyl)phenyl-2,4-pyrimidinediamine], the IC50 in test [1] was 548 nM; in test [2] it was 62.7 nM.

Regarding `NS(=O)(=O)c1cccc(Nc2ncc(F)c(Nc3ccc(CNS(=O)(=O)CC(F)(F)F)cc3)n2)c1` [Compound I-49, N2-(3-aminosulfonyl)phenyl-5-fluoro-N4-(4-trifluoroethylsulfonylaminomethyl)phenyl-2,4-pyrimidinediamine], the IC50 in test [1] stood at 836 nM; in test [2], 38.3 nM.

Regarding `C#CCNS(=O)(=O)c1cccc(Nc2ncc(C)c(Nc3ccc(CNS(=O)(=O)C4CC4)cc3)n2)c1` [Compound I-165, N4-(4-cyclopropylsulfonylaminomethyl)phenyl-5-methyl-N2-(3-propargylaminosulfonyl)phenyl-2,4-pyrimidinediamine], the 50% inhibitory concentration (IC50) was determined as 150 nM in test [1] and 19.9 nM in test [2].

Regarding `Cc1ccc(Nc2ncc(F)c(Nc3ccc(CNS(=O)(=O)C4CCCC4)cc3)n2)cc1S(N)(=O)=O` [Compound I-70, N2-(3-aminosulfonyl-4-methyl)phenyl-N4-(4-cyclopentylsulfonylaminomethyl)phenyl-5-fluoro-2,4-pyrimidinediamine], the concentration for half-maximal inhibition (IC50) in test [1] was 159 nM; in test [2], 150 nM.

As for `CCS(=O)(=O)NCc1cccc(Nc2nc(Nc3ccc(C)c(S(N)(=O)=O)c3)ncc2F)c1` [Compound I-13, N2-(3-aminosulfonyl-4-methyl)phenyl-N4-(3-ethylsulfonylaminomethyl)phenyl-5-fluoro-2,4-pyrimidinediamine], the IC50 in test [1] worked out at 536 nM; in test [2] it was 197 nM.

With `Cc1ccc(Nc2ncc(C)c(Nc3ccc(CNS(=O)(=O)C4CC4)cc3)n2)cc1S(=O)(=O)NC(C)C` [Compound I-189, N4-(4-cyclopropylsulfonylaminomethyl)phenyl-N2-(3-isopropylaminosulfonyl-4-methyl)phenyl-5-methyl-2,4-pyrimidinediamine], the IC50 was determined as 153 nM in test [1] and 34.4 nM in test [2].

For the compound `CCS(=O)(=O)N[C@H](C)c1ccc(Nc2nc(Nc3cccc(S(N)(=O)=O)c3)ncc2F)cc1` [Compound I-30, N2-(3-aminosulfonyl)phenyl-N4-[4-(1R-ethylsulfonylamino)ethyl]phenyl-5-fluoro-2,4-pyrimidinediamine], the IC50 in test [1] was found to be 1160 nM; in test [2] it was 153 nM.

For `Cc1cnc(Nc2ccc(S(N)(=O)=O)cc2)nc1Nc1ccc(CNS(=O)(=O)C(C)C)cc1` [Compound I-123, N2-(4-aminosulfonyl)phenyl-N4-(4-isopropylsulfonylaminomethyl)phenyl-5-methyl-2,4-pyrimidinediamine], the IC50 stood at 164 nM in test [1] and 42.9 nM in test [2].

Take `NS(=O)(=O)c1ccc(Nc2ncc(F)c(Nc3ccc(CNS(=O)(=O)CC(F)(F)F)cc3)n2)cc1` [Compound I-48, N2-(4-aminosulfonyl)phenyl-5-fluoro-N4-(4-trifluoroethylsulfonylaminomethyl)phenyl-2,4-pyrimidinediamine]: the values for the half-maximal inhibitory concentration (IC50) in test [1] and in test [2] were 3760 nM and 758 nM, respectively.

As for `Cc1cnc(Nc2cccc(S(N)(=O)=O)c2)nc1Nc1ccc(CNS(=O)(=O)C2CC2)c(Cl)c1` [Compound I-119, N2-(3-aminosulfonyl)phenyl-N4-(3-chloro-4-cyclopropylsulfonylaminomethyl)phenyl-5-methyl-2,4-pyrimidinediamine], the 50% inhibitory concentration (IC50) amounted to 535 nM in test [1] and 95.4 nM in test [2].

As to `Cc1cnc(Nc2cccc(S(N)(=O)=O)c2)nc1Nc1ccc(CN(C)S(=O)(=O)C2CC2)cc1` [Compound I-121, N2-(3-aminosulfonyl)phenyl-N4-[4-(N-cyclopropylsulfonyl-N-methyl)aminomethyl]phenyl-5-methyl-2,4-pyrimidinediamine], the concentration for half-maximal inhibition (IC50) in test [1] was determined as 231 nM; in test [2] it was 46.5 nM.

For the compound `COCCNS(=O)(=O)c1cccc(Nc2ncc(C)c(Nc3ccc(CNS(=O)(=O)C4CC4)cc3)n2)c1` [Compound I-184, N4-(4-cyclopropylsulfonylaminomethyl)phenyl-N2-[3-(2-methoxyethyl)aminosulfonyl]phenyl-5-methyl-2,4-pyrimidinediamine], the values for the IC50 in test [1] and in test [2] were 97.8 nM and 51.7 nM, respectively.

For the compound `Cc1cnc(Nc2cccc(S(=O)(=O)NCC3CC3)c2)nc1Nc1ccc(CNS(=O)(=O)C2CC2)cc1` [Compound I-180, N2-(3-cyclopropylmethylaminosulfonyl)phenyl-N4-(4-cyclopropylsulfonylaminomethyl)phenyl-5-methyl-2,4-pyrimidinediamine], the IC50 was 62.2 nM in test [1] and 148 nM in test [2].

As for `CCNS(=O)(=O)c1cccc(Nc2ncc(C)c(Nc3cccc(CNS(=O)(=O)C4CC4)c3)n2)c1` [Compound I-208, N4-(3-cyclopropylsulfonylaminomethyl)phenyl-N2-(3-ethylaminosulfonyl)phenyl-5-methyl-2,4-pyrimidinediamine], the IC50 in test [1] is 257 nM; in test [2], 45.8 nM.

On to `C#CCNS(=O)(=O)c1cc(Nc2ncc(C)c(Nc3ccc(CNS(=O)(=O)C4CC4)cc3)n2)ccc1C` [Compound I-188, N4-(4-cyclopropylsulfonylaminomethyl)phenyl-5-methyl-N2-(4-methyl-3-propargylaminosulfonyl)phenyl-2,4-pyrimidinediamine], for which the IC50 in test [1] is 193 nM; in test [2], 573 nM.

On to `NS(=O)(=O)c1ccc(Nc2ncc(F)c(Nc3ccc(CNS(=O)(=O)C4CCCCC4)cc3)n2)cc1` [Compound I-71, N2-(4-aminosulfonyl)phenyl-N4-(4-cyclohexylsulfonylaminomethyl)phenyl-5-fluoro-2,4-pyrimidinediamine], for which the concentration for half-maximal inhibition (IC50) was determined as 401 nM in test [1] and 132 nM in test [2].

Take `CCCN(Cc1ccc(Nc2nc(Nc3cccc(S(N)(=O)=O)c3)ncc2C)cc1)S(=O)(=O)C1CC1` [Compound I-80, N2-(3-aminosulfonyl)phenyl-N4-[4-(N-cyclopropylsulfonyl-N-propylamino)methyl]phenyl-5-methyl-2,4-pyrimidinediamine]: the half-maximal inhibitory concentration (IC50) in test [1] was 143 nM; in test [2] it was 46.3 nM.

Turning to `CCS(=O)(=O)NCCc1ccc(Nc2nc(Nc3ccc(C)c(S(N)(=O)=O)c3)ncc2F)cc1` [Compound I-16, N2-(3-aminosulfonyl-4-methyl)phenyl-N4-[4-(2-ethylsulfonylamino)ethyl]phenyl-5-fluoro-2,4-pyrimidinediamine], the IC50 in test [1] was 2280 nM; in test [2], 536 nM.

As for `CCC(=O)N(Cc1cccc(Nc2nc(Nc3cccc(S(N)(=O)=O)c3)ncc2C)c1)S(=O)(=O)C1CC1` [Compound I-116, N2-(3-aminosulfonyl)phenyl-N4-[3-(N-cyclopropylsulfonyl-N-propionyl)aminomethyl]phenyl-5-methyl-2,4-pyrimidinediamine], the figures for the IC50 in test [1] and in test [2] were 178 nM and 29.9 nM, respectively.

Turning to `NS(=O)(=O)c1ccc(Nc2ncc(F)c(Nc3ccc(CNS(=O)(=O)C4CCCC4)cc3)n2)cc1` [Compound I-68, N2-(4-aminosulfonyl)phenyl-N4-(4-cyclopentylsulfonylaminomethyl)phenyl-5-fluoro-2,4-pyrimidinediamine], the figures for the IC50 in test [1] and in test [2] were 289 nM and 102 nM, respectively.

Turning to `Cc1ccc(Nc2ncc(C)c(Nc3ccc(CNS(=O)(=O)C4CC4)cc3)n2)cc1S(N)(=O)=O` [Compound I-47, N2-(3-aminosulfonyl-4-methyl)phenyl-N4-(4-cyclopropylsulfonylaminomethyl)phenyl-5-methyl-2,4-pyrimidinediamine], the IC50 worked out at 104 nM in test [1] and 36.2 nM in test [2].

For the compound `Cc1cnc(Nc2cccc(S(N)(=O)=O)c2)nc1Nc1cccc(CNS(=O)(=O)C2CC2)c1` [Compound I-51, N2-(3-aminosulfonyl)phenyl-N4-(3-cyclopropylsulfonylaminomethyl)phenyl-5-methyl-2,4-pyrimidinediamine], the values for the half-maximal inhibitory concentration (IC50) in test [1] and in test [2] were 324 nM and 29.7 nM, respectively.

Consider `CNS(=O)(=O)c1cc(Nc2ncc(C)c(Nc3ccc(CNS(=O)(=O)C4CC4)cc3)n2)ccc1C` [Compound I-185, N4-(4-cyclopropylsulfonylaminomethyl)phenyl-5-methyl-N2-(4-methyl-3-methylaminosulfonyl)phenyl-2,4-pyrimidinediamine], for which the IC50 in test [1] stood at 85.3 nM; in test [2], 41.1 nM.

In the case of `CCNS(=O)(=O)c1cccc(Nc2ncc(C)c(Nc3ccc(CNS(=O)(=O)C4CC4)cc3)n2)c1` [Compound I-176, N4-(4-cyclopropylsulfonylaminomethyl)phenyl-N2-(3-ethylaminosulfonyl)phenyl-5-methyl-2,4-pyrimidinediamine], the IC50 worked out at 48.4 nM in test [1] and 64.5 nM in test [2].

With `NS(=O)(=O)c1cccc(Nc2ncc(F)c(Nc3ccc(CNS(=O)(=O)C4CCCC4)cc3)n2)c1` [Compound I-69, N2-(3-aminosulfonyl)phenyl-N4-(4-cyclopentylsulfonylaminomethyl)phenyl-5-fluoro-2,4-pyrimidinediamine], the IC50 amounted to 176 nM in test [1] and 50 nM in test [2].
